Here are results for 18 compounds from ChEMBL document CHEMBL4417631, “Oral peptide inhibitors of interleukin-23 receptor and their use to treat inflammatory bowel diseases” (2017).

pIC50: −log10 of the molar value. *1 amine or outer side, *2 acyl side, *3 side chain or, on linkers, in order; H or OH if unused. Where a SMILES comes first, the peptide text is derived from it. Bridges are numbered along the chain shown (N, C = ends). [ ]: non-standard residue; d: D form. The star is where a group is joined. Abu(4-yl) = O=C([C@H](CC[*:3])N[*:1])[*:2]; AEF = NCCOc1ccc(C[C@H](N)C(=O)O)cc1; αMeK = C[C@](N)(CCCCN)C(=O)O; Dap = NC[C@H](N)C(=O)O; OBn = c1ccc(CO*)cc1 Where only a bound is given, the exact number is not on record here.

The assay concerns the target T1, Interleukin-23 receptor (Homo sapiens, UniProt Q5VWK5).
T1 sequence (Q5VWK5 whole entry): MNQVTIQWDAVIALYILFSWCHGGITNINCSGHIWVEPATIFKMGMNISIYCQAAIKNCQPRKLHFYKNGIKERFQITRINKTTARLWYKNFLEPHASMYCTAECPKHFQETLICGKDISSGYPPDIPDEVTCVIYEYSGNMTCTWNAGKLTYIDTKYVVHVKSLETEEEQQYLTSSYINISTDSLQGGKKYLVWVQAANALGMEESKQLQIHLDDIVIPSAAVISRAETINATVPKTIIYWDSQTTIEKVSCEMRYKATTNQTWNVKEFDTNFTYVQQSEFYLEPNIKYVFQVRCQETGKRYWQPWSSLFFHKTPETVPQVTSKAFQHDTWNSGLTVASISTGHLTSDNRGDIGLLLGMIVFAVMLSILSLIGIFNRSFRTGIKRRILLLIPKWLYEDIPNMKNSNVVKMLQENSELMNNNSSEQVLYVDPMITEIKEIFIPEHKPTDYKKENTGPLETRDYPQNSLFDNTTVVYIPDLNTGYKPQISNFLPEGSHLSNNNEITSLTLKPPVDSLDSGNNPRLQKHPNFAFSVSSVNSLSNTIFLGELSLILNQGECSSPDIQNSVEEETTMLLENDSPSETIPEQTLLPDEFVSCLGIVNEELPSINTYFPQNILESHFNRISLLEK
Briefly: Inhibition of interleukin-23 binding to human interleukin-23 receptor incubated for 2 hrs by competitive binding ELISA.
With `CC(=O)N[C@@H](CS)C(=O)N[C@@H](CCCNC(=N)N)C(=O)N[C@H](C(=O)N[C@@H](Cc1c[nH]c2ccccc12)C(=O)N[C@@H](CCC(=O)O)C(=O)N[C@@H](CS)C(=O)N[C@@H](Cc1ccc(O)cc1)C(=O)N[C@@H](Cc1c[nH]c2ccccc12)C(=O)N[C@@H](Cc1cnc[nH]1)C(=O)N[C@@H](CCC(=O)O)C(=O)N[C@@H](Cc1ccc(O)cc1)C(=O)NCC(N)=O)[C@@H](C)O` (Ac-CRTWECYWHEYG-NH2), the pIC50 was > 6.30.
With `CC(=O)N[C@@H](CS)C(=O)N[C@@H](CCC(N)=O)C(=O)N[C@H](C(=O)N[C@@H](Cc1c[nH]c2ccccc12)C(=O)N[C@@H](CCC(N)=O)C(=O)N[C@@H](CS)C(=O)N[C@@H](Cc1ccc(O)cc1)C(=O)N[C@@H](Cc1c[nH]c2ccccc12)C(=O)N[C@@H](CCCNC(=N)N)C(=O)N[C@@H](CCCNC(=N)N)C(=O)N[C@@H](CC(N)=O)C(=O)NCC(=O)NCCOCC(=O)N[C@H](CCCCN)C(N)=O)[C@@H](C)O`, the pIC50 was > 6.30.
The result for `CC(=O)NCCCC[C@H](NC(=O)[C@](C)(CCCCN)NC(=O)[C@H](CCC(=O)OCc1ccccc1)NC(=O)[C@H](Cc1ccc(OCCN)cc1)NC(=O)[C@@H]1CSCC[C@H](NC(C)=O)C(=O)N[C@@H](CN)C(=O)N[C@@H]([C@@H](C)O)C(=O)N[C@@H](Cc2c[nH]c3ccccc23)C(=O)N[C@@H](CCC(N)=O)C(=O)N1)C(=O)N[C@@H](CC(N)=O)C(=O)NCC(N)=O` (Ac-[Abu(4-yl)][Dap]TWQC[AEF]E(OBn)[αMeK]K(Ac)NG-NH2; thioether 1-6) reads < 5.52.
Consider `CC(C)[C@H](NC(=O)[C@H](Cc1c[nH]c2ccccc12)NC(=O)[C@H](CC(=O)O)NC(=O)[C@H](C)NC(=O)[C@@H](N)CS)C(=O)N[C@@H](CS)C(=O)N[C@@H](Cc1ccc(O)cc1)C(=O)N[C@@H](Cc1cccc2ccccc12)C(=O)N[C@@H](Cc1cnc[nH]1)C(=O)N(C)CC(=O)N[C@@H](Cc1ccccc1)C(=O)O`, for which the pIC50 was < 6.00.
For the compound `CC(=O)N[C@@H](CS)C(=O)N[C@@H](CCCNC(=N)N)C(=O)N[C@@H](CC(=O)O)C(=O)N[C@@H](Cc1c[nH]c2ccccc12)C(=O)N[C@@H](CCC(N)=O)C(=O)N[C@@H](CS)C(=O)N[C@@H](Cc1ccc(O)cc1)C(=O)N[C@@H](Cc1c[nH]c2ccccc12)C(=O)N[C@H](CCCNC(=N)N)C(=O)N[C@@H](CCCCN)C(=O)N[C@@H](Cc1ccccc1)C(=O)NCC(=O)NCCOCCC(=O)N[C@H](CCCCN)C(N)=O`, the pIC50 was < 6.00.
The value for `CC(C)[C@H](NC(=O)[C@H](Cc1c[nH]c2ccccc12)NC(=O)[C@H](CC(=O)O)NC(=O)[C@H](C)NC(=O)[C@@H](N)CS)C(=O)N[C@@H](CS)C(=O)N[C@@H](Cc1ccc(O)cc1)C(=O)N[C@@H](Cc1ccc2ccccc2c1)C(=O)N[C@@H](Cc1cnc[nH]1)C(=O)N[C@H](C(=O)N[C@@H](Cc1ccccc1)C(=O)NCC(N)=O)[C@@H](C)O` was 6.00 to 6.30; that for `CCCCCCCCCCCCCCCC(=O)NCCCC[C@H](NC(=O)[C@H](Cc1c[nH]c2ccccc12)NC(=O)[C@@H](NC(=O)[C@H](CCC(N)=O)NC(=O)[C@H](CS)NC(C)=O)[C@@H](C)O)C(=O)N[C@@H](CS)C(=O)N[C@@H](Cc1ccc(O)cc1)C(=O)N[C@@H](Cc1c[nH]c2ccccc12)C(=O)N[C@@H](CC(C)C)C(=O)N[C@@H](CCC(=O)O)C(=O)N[C@@H](CC(N)=O)C(=O)NCC(N)=O` was 4.52.
On to `CC(=O)N[C@@H](CS)C(=O)N[C@@H](CCC(N)=O)C(=O)N[C@H](C(=O)N[C@@H](Cc1c[nH]c2ccccc12)C(=O)N[C@@H](CCC(N)=O)C(=O)N[C@@H](CS)C(=O)N[C@@H](Cc1ccc(O)cc1)C(=O)N[C@@H](Cc1c[nH]c2ccccc12)C(=O)N[C@@H](CCCNC(=N)N)C(=O)N[C@H](C(=O)N[C@@H](CC(N)=O)C(=O)NCC(=O)NCCOCC(=O)N[C@H](CCCCN)C(N)=O)[C@@H](C)O)[C@@H](C)O`, for which the pIC50 was > 6.30.
Take `CC(=O)N[C@@H](C)C(=O)N[C@H](C(=O)N[C@@H](CC(=O)O)C(=O)N[C@@H](Cc1c[nH]c2ccccc12)C(=O)N[C@H](C(=O)N[C@H](C(=O)N[C@@H](Cc1ccc(O)cc1)C(=O)N[C@@H](Cc1c[nH]c2ccccc12)C(=O)N[C@@H](CCCN)C(=O)N[C@@H](CN)C(=O)N[C@@H](Cc1ccccc1)C(=O)NCC(=O)NCCOCC(=O)N[C@H](CCCCN)C(N)=O)C(C)(C)S)C(C)C)C(C)(C)S`: the pIC50 was < 4.52.
The value for `CC(=O)N[C@@H](CS)C(=O)N[C@@H](C)C(=O)N[C@@H](CC(=O)O)C(=O)N[C@@H](Cc1c[nH]c2ccccc12)C(=O)N[C@H](C(=O)N[C@@H](CS)C(=O)N[C@@H](Cc1ccc(O)cc1)C(=O)N[C@@](C)(Cc1ccc(F)cc1)C(=O)N[C@@H](CCCN)C(=O)N[C@@H](CN)C(=O)N[C@@H](Cc1ccccc1)C(=O)NCC(=O)NCCOCC(=O)N[C@H](CCCCN)C(N)=O)C(C)C` was < 4.52.
The result for `CC(C)[C@H](NC(=O)[C@H](Cc1c[nH]c2ccccc12)NC(=O)[C@H](CC(N)=O)NC(=O)[C@H](CO)NC(=O)[C@@H](N)CS)C(=O)N[C@@H](CS)C(=O)N[C@@H](Cc1ccc(O)cc1)C(=O)N[C@@H](Cc1c[nH]c2ccccc12)C(=O)N[C@@H](Cc1cnc[nH]1)C(=O)N[C@H](C(=O)N[C@@H](Cc1ccc(O)cc1)C(=O)NCC(N)=O)[C@@H](C)O` (H-CSNWVCYWHTYG-NH2) reads > 6.30.
The value for `CC(=O)N[C@H]1CCSC[C@@H](C(=O)N[C@@H](Cc2ccc(C(N)=O)cc2)C(=O)N[C@@H](Cc2ccc3ccccc3c2)C(=O)NC(C)(C)C(=O)N[C@@H](CCC(=O)O)C(=O)N[C@@H](CC(N)=O)C(=O)NCC(N)=O)NC(=O)[C@H](CCC(N)=O)NC(=O)[C@H](Cc2c[nH]c3ccccc23)NC(=O)[C@H]([C@@H](C)O)NC(=O)[C@H](CCC(N)=O)NC1=O` was 6.00 to 7.00.
Turning to `CC(C)[C@H](NC(=O)[C@H](Cc1ccc2ccccc2c1)NC(=O)[C@H](CC(=O)O)NC(=O)[C@H](C)NC(=O)[C@@H](N)CS)C(=O)N[C@@H](CS)C(=O)N[C@@H](Cc1ccc(O)cc1)C(=O)N[C@@H](Cc1c[nH]c2ccccc12)C(=O)N[C@@H](Cc1cnc[nH]1)C(=O)N[C@H](C(=O)N[C@@H](Cc1ccccc1)C(=O)NCC(N)=O)[C@@H](C)O`, the pIC50 is < 6.00.
The compound `N=C(N)NCCC[C@H](NC(=O)[C@H](Cc1cnc[nH]1)NC(=O)[C@H](Cc1c[nH]c2ccccc12)NC(=O)[C@H](Cc1ccc(O)cc1)NC(=O)[C@H](CS)NC(=O)[C@H](CCC(=O)O)NC(=O)[C@H](Cc1c[nH]c2ccccc12)NC(=O)[C@H](CC(N)=O)NC(=O)[C@@H]1CCCN1C(=O)[C@@H](N)CS)C(=O)N[C@@H](Cc1ccccc1)C(=O)NCC(N)=O` (H-CPNWECYWHRFG-NH2) showed a pIC50 of 6.00 to 6.30.
`CC(=O)N[C@@H](CS)C(=O)N[C@@H](C)C(=O)N[C@@H](CC(=O)O)C(=O)N[C@@H](Cc1c[nH]c2ccccc12)C(=O)N[C@H](C(=O)N[C@@H](CS)C(=O)N[C@@H](Cc1ccc(O)cc1)C(=O)N[C@@H](Cc1c[nH]c2ccccc12)C(=O)N[C@@H](Cc1cnc[nH]1)C(=O)N[C@H](C(=O)N[C@@H](Cc1ccccc1)C(=O)NCC(=O)NCCOCC(=O)N[C@H](CCCCNC(=O)COCC(=O)NCCCC[C@@H](NC(=O)COCCNC(=O)CNC(=O)[C@H](Cc1ccccc1)NC(=O)[C@@H](NC(=O)[C@H](Cc1cnc[nH]1)NC(=O)[C@H](Cc1c[nH]c2ccccc12)NC(=O)[C@H](Cc1ccc(O)cc1)NC(=O)[C@H](CS)NC(=O)[C@@H](NC(=O)[C@H](Cc1c[nH]c2ccccc12)NC(=O)[C@H](CC(=O)O)NC(=O)[C@H](C)NC(=O)[C@H](CS)NC(C)=O)C(C)C)[C@@H](C)O)C(=O)O)C(=O)O)[C@@H](C)O)C(C)C` showed a pIC50 of 7.00 to 7.60.
`CC(=O)N[C@H](C(=O)N[C@@H](C)C(=O)N[C@@H](CC(=O)O)C(=O)N[C@@H](Cc1c[nH]c2ccccc12)C(=O)N[C@H](C(=O)N[C@@H](CS)C(=O)N[C@@H](Cc1ccc(O)cc1)C(=O)N[C@@H](Cc1c[nH]c2ccccc12)C(=O)N[C@@H](Cc1cnc[nH]1)C(=O)N[C@H](C(=O)N[C@@H](Cc1ccccc1)C(=O)NCC(N)=O)[C@@H](C)O)C(C)C)C(C)(C)S` gave a pIC50 of 5.00 to 6.00.
As for `CC(=O)N[C@@H](CS)C(=O)N[C@H](C(=O)N[C@H](C(=O)N[C@@H](Cc1c[nH]c2ccccc12)C(=O)N[C@@H](CCC(=O)O)C(=O)N[C@@H](CS)C(=O)N[C@@H](Cc1ccc(O)cc1)C(=O)N[C@@H](Cc1c[nH]c2ccccc12)C(=O)N[C@@H](Cc1cnc[nH]1)C(=O)N[C@@H](CCC(=O)O)C(=O)N[C@@H](Cc1ccc(O)cc1)C(=O)NCC(N)=O)[C@@H](C)O)[C@@H](C)O` (Ac-CTTWECYWHEYG-NH2), the pIC50 was > 6.30.
Consider `CC(=O)N[C@@H](CS)C(=O)N[C@@H](CCC(N)=O)C(=O)N[C@H](C(=O)N[C@@H](Cc1c[nH]c2ccccc12)C(=O)N[C@@H](CCC(N)=O)C(=O)N[C@@H](CS)C(=O)N[C@H](C(=O)N[C@@H](Cc1c[nH]c2ccccc12)C(=O)N[C@@H](CCC(C)C)C(=O)N[C@@H](CCC(=O)O)C(=O)N[C@@H](CC(N)=O)C(=O)NCC(N)=O)[C@@H](C)O)[C@@H](C)O`, for which the pIC50 was < 4.52.

For orientation: pIC50 means the IC50 on a negative log10 scale, so that one unit is a factor of ten. High values mean a low IC50, low ones a high IC50.
